Test results: PubChem BioAssay (NCI)
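Test compounds were applied to cells in 96-well plates for 48 hours at 5 doses. The concentration for 50% growth inhibition is given as GI50. Definition used: TGI = concentration required for complete inhibition of growth.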

Key:
Experiment in all cases: growth of human tumour cells (NCI), 48 h
MALME-3M melanoma = test system: MALME-3M melanoma
SK-MEL-2 melanoma = test system: SK-MEL-2 melanoma
SF-268 CNS = test system: SF-268 CNS
DU-145 prostate = test system: DU-145 prostate
ACHN renal = test system: ACHN renal
T-47D breast = test system: T-47D breast
NCI-H23 lung = test system: NCI-H23 lung
MOLT-4 leukemia = test system: MOLT-4 leukemia
CCRF-CEM leukemia = test system: CCRF-CEM leukemia
NCI/ADR-RES ovarian = test system: NCI/ADR-RES ovarian
KM12 colon = test system: KM12 colon
NCI-H226 lung = test system: NCI-H226 lung
HS 578T breast = test system: HS 578T breast
BT-549 breast = test system: BT-549 breast
M14 melanoma = test system: M14 melanoma
SF-539 CNS = test system: SF-539 CNS
HOP-92 NSCLC = test system: HOP-92 NSCLC
HCT-15 colon = test system: HCT-15 colon
CAKI-1 renal = test system: CAKI-1 renal
SK-MEL-5 melanoma = test system: SK-MEL-5 melanoma
HT29 colon = test system: HT29 colon
A498 renal = test system: A498 renal
OVCAR-4 ovarian = test system: OVCAR-4 ovarian
HOP-62 NSCLC = test system: HOP-62 NSCLC
SF-295 CNS = test system: SF-295 CNS
MDA-MB-231 breast = test system: MDA-MB-231 breast
EKVX NSCLC = test system: EKVX NSCLC
NCI-H460 lung = test system: NCI-H460 lung
SNB-19 CNS = test system: SNB-19 CNS
MDA-MB-435 = test system: MDA-MB-435
SR leukemia = test system: SR leukemia
UACC-257 melanoma = test system: UACC-257 melanoma
SK-OV-3 ovarian = test system: SK-OV-3 ovarian
PC-3 prostate = test system: PC-3 prostate
UO-31 renal = test system: UO-31 renal
OVCAR-5 ovarian = test system: OVCAR-5 ovarian
COLO 205 colon = test system: COLO 205 colon
RPMI-8226 leukemia = test system: RPMI-8226 leukemia
NCI-H522 lung = test system: NCI-H522 lung
TK-10 renal = test system: TK-10 renal
U251 CNS = test system: U251 CNS
SK-MEL-28 melanoma = test system: SK-MEL-28 melanoma
A549 NSCLC = test system: A549 NSCLC
LOX IMVI melanoma = test system: LOX IMVI melanoma
HL-60(TB) leukemia = test system: HL-60(TB) leukemia
HCC-2998 colon = test system: HCC-2998 colon
MCF7 breast = test system: MCF7 breast
HCT-116 colon = test system: HCT-116 colon
K-562 leukemia = test system: K-562 leukemia
786-0 renal = test system: 786-0 renal

## CCc1nc2cc(/C=C/C(=O)NO)ccc2c(=O)n1CCc1ccc(F)cc1
MALME-3M melanoma
  GI50: 1.83 µM
  TGI: 12.4 µM
SK-MEL-2 melanoma
  GI50: 2.9 µM
  TGI: 6.59 µM
SF-268 CNS
  GI50: 2.14 µM
  TGI: 5.98 µM
DU-145 prostate
  GI50: 1.94 µM
  TGI: 8.67 µM
ACHN renal
  GI50: 1.5 µM
  TGI: 3.27 µM
T-47D breast
  GI50: 0.629 µM
  TGI: 6.23 µM
NCI-H23 lung
  GI50: 1.62 µM
  TGI: 3.7 µM
MOLT-4 leukemia
  GI50: 1.79 µM
  TGI: > 100 µM
CCRF-CEM leukemia
  GI50: 1.39 µM
  TGI: > 100 µM
NCI/ADR-RES ovarian
  GI50: 0.577 µM
  TGI: 3.15 µM
KM12 colon
  GI50: 2.2 µM
  TGI: 14.3 µM
NCI-H226 lung
  GI50: 1.71 µM
  TGI: 4.59 µM
HS 578T breast
  GI50: 2.26 µM
  TGI: > 100 µM
BT-549 breast
  GI50: 2.84 µM
  TGI: 9.14 µM
M14 melanoma
  GI50: 1.65 µM
  TGI: 3.6 µM
SF-539 CNS
  GI50: 1.73 µM
  TGI: 5.53 µM
HOP-92 NSCLC
  GI50: 2.45 µM
  TGI: 6.28 µM
HCT-15 colon
  GI50: 1.57 µM
  TGI: 39.6 µM
CAKI-1 renal
  GI50: 2.27 µM
  TGI: 6.12 µM
SK-MEL-5 melanoma
  GI50: 0.903 µM
  TGI: 2.21 µM
HT29 colon
  GI50: 1.49 µM
  TGI: 9.06 µM
A498 renal
  GI50: 1.1 µM
  TGI: 2.77 µM
OVCAR-4 ovarian
  GI50: 2.34 µM
  TGI: > 100 µM
HOP-62 NSCLC
  GI50: 1.5 µM
  TGI: 4.44 µM
SF-295 CNS
  GI50: 1.87 µM
  TGI: 3.61 µM
MDA-MB-231 breast
  GI50: 1.32 µM
  TGI: 4.67 µM
EKVX NSCLC
  GI50: 2.44 µM
  TGI: 7.21 µM
NCI-H460 lung
  GI50: 1.08 µM
  TGI: 3.82 µM
SNB-19 CNS
  GI50: 1.82 µM
  TGI: 5.34 µM
MDA-MB-435
  GI50: 1.7 µM
  TGI: 4.38 µM
SR leukemia
  GI50: 1.74 µM
  TGI: > 100 µM
UACC-257 melanoma
  GI50: 2.24 µM
  TGI: 5.92 µM
SK-OV-3 ovarian
  GI50: 1.93 µM
  TGI: 4.3 µM
PC-3 prostate
  GI50: 2.92 µM
  TGI: > 100 µM
UO-31 renal
  GI50: 1.41 µM
  TGI: 3.11 µM
OVCAR-5 ovarian
  GI50: 2.19 µM
  TGI: > 100 µM
COLO 205 colon
  GI50: 1.26 µM
  TGI: 3.65 µM
RPMI-8226 leukemia
  GI50: 0.99 µM
  TGI: > 100 µM
NCI-H522 lung
  GI50: 1.34 µM
  TGI: 4.06 µM
TK-10 renal
  GI50: 1.42 µM
  TGI: 4.89 µM
U251 CNS
  GI50: 1.31 µM
  TGI: 2.91 µM
SK-MEL-28 melanoma
  GI50: 1.85 µM
  TGI: 4.15 µM
A549 NSCLC
  GI50: 1.72 µM
  TGI: 4.58 µM
LOX IMVI melanoma
  GI50: 1.35 µM
  TGI: 2.78 µM
HL-60(TB) leukemia
  GI50: 4.59 µM
  TGI: > 100 µM
HCC-2998 colon
  GI50: 1.59 µM
  TGI: 3.95 µM
MCF7 breast
  GI50: 1.31 µM
  TGI: > 100 µM
HCT-116 colon
  GI50: 0.49 µM
  TGI: 2.93 µM
K-562 leukemia
  GI50: 2.37 µM
  TGI: > 100 µM
786-0 renal
  GI50: 1.76 µM
  TGI: 3.89 µM
